Our source for the IC50 values is patent US11918582B2 (RAPT Therapeutics, Inc., priority 2021, dated 2024).

This test addresses T1, human HPK1 (MAP4K1) (Homo sapiens, UniProt Q92918).
T1 construct: Recombinant human HPK1 kinase domain was obtained from ThermoFisher (Cat. #PV6357) and SignalChem (Cat. #M23-11G); purchased ThermoFisher; SignalChem PV6357; M23-11G
T1 sequence (Q92918 17-274 limits assumed): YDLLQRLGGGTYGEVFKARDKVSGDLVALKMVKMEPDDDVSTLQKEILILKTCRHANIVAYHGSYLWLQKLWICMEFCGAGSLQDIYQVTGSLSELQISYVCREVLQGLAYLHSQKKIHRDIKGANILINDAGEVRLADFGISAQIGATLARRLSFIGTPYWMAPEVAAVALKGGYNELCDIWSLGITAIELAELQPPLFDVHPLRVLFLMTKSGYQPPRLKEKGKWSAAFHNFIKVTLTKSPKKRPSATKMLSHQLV
Put plainly: Biochemical assay for activity against HPK1 (ADP-Glo, MBP substrate). To be noted: recombinant human HPK1 kinase domain, 1 nM enzyme, ADP-Glo luminescence. From the text:
These compounds are made by the synthetic methods described earlier herein. Example 227 Biochemical Assay for Testing Compounds for Activity against HPK1
The enzymatic activity of human HPK1 (MAP4K1) was monitored in a biochemical assay in the presence or absence of compounds, using a peptide substrate (myelin basic protein, MBP), with an ADP-Glo assay kit (Promega, Cat. #V9103). An increase in phosphorylation of the peptide by HPK1 was indicative of its kinase activity.
Recombinant human HPK1 kinase domain was obtained from ThermoFisher (Cat. #PV6357) and SignalChem (Cat. #M23-11G). A 1 nM HPK1 kinase enzyme solution was prepared from the HPK1 stock received from the commercial supplier using an assay buffer containing 50 mM HEPES (4-(2-hydroxyethyl)-1-piperazineethanesulfonic acid) pH 7.5 (Fisher Scientific, Cat. #H1035), 150 mM NaCl (Fisher Scientific, Cat. #50843067), 3 mM TCEP-HCl (Tris(2-carboxyethyl)phosphine hydrochloride; Fisher Scientific, Cat. #PIPG82080), 10 mM MgCl2 (Fisher Scientific, Cat. #AM9530G), 0.005% Tween-20 (Fisher Scientific, Cat. #BP337500) and 0.01% BSA (bovine serum albumin; ThermoFisher, Cat. #15260037), in ultra-pure water. The final concentration of the assay buffer was 770 nM. A 5 mM stock solution of the peptide substrate was prepared using […] MBP (Myelin Basic Protein, Active Motif, Cat. #31314), 10 mM ATP (adenosine 5′-triphosphate; Sigma-Aldrich, Cat. #GE27-2056-01) and of assay buffer.
Test compounds were dissolved in DMSO (dimethyl sulfoxide) at 10 mM and then serial dilutions were prepared using a ViaFlow assist multichannel dispenser (Integra ViaFlo). 20 nL of test compounds at various concentrations were dispensed into a 1536-well assay plate (Corning Cat. #7247) using an Echo Nanoliter dispenser (Labcyte ECHO 550). […] of a 1 nM solution of HPK1 kinase enzyme diluted in assay buffer was added to the compound-containing plate using a Mantis Microliter dispenser (Formulatrix Mantis), covered with a lid, and incubated for 15 minutes at room temperature. 50 nL of a 5 mM stock solution of the peptide substrate (MBP) were added using the Echo Nanoliter dispenser. The plate was covered with a lid, centrifugated at 500 rpm for 1 minute and incubated for 2 hours at room temperature. […] of ADP-Glo reagent A was added using the Mantis Microliter dispenser, centrifugated at 500 rpm for 30 seconds and incubated for 40 minutes at room temperature. […] of ADP-Glo reagent B was added using the Mantis Microliter dispenser, centrifugated at 500 rpm for 30 seconds and incubated for 30 minutes at room temperature. Peptide phosphorylation was measured by luminescence on an Envision plate reader (PerkinElmer).
The HPK1 biochemical IC50 activity levels of the compounds of Examples 1-225 were tested using this assay and are shown in Table 2.
For orientation: ADP-Glo first removes unused ATP, then detects ADP through luciferase.

The structures appear in SMILES notation. Counter-ions that a name gives are not always drawn.

Broadly, the IC50 is the concentration needed to halve the response being measured. As to `COc1cc2c(cc1Nc1ncc3cnn(C[C@@H]4[C@@H](F)CCN4C(C)=O)c3n1)CN(C)CC2` [Example 213, 1-[(2R,3S)-3-fluoro-2-[[6-[(6-methoxy-2-methyl-3,4-dihydro-1H-isoquinolin-7-yl)amino]pyrazolo[3,4-d]pyrimidin-1-yl]methyl]pyrrolidin-1-yl]ethanone], the IC50 is under 100 nM.
The value for `COc1cc2c(cc1Nc1ncc3cnn([C@H]4CC[C@H](OC)CC4)c3n1)CN(C)CC2` [Example 47, 6-methoxy-N-(1-(trans-4-methoxycyclohexyl)-1H-pyrazolo[3,4-d]pyrimidin-6-yl)-2-methyl-1,2,3,4-tetrahydroisoquinolin-7-amine] was under 100 nM; that for `COc1cc2c(cc1Nc1ncc3cnn([C@H]4C[C@](C)(C(=O)OC)C4)c3n1)CN(C)CC2` [Example 70, trans-methyl 3-[6-[(6-methoxy-2-methyl-3,4-dihydro-1H-isoquinolin-7-yl)amino]pyrazolo[3,4-d]pyrimidin-1-yl]-1-methyl-cyclobutanecarboxylate] was under 100 nM; that for `COc1cc2c(cc1Nc1ncc3cnn(C4CCN(C(=O)C(F)(F)F)CC4)c3n1)CN(C)CC2` [Example 107, 2,2,2-trifluoro-1-(4-(6-((6-methoxy-2-methyl-1,2,3,4-tetrahydroisoquinolin-7-yl)amino)-1H-pyrazolo[3,4-d]pyrimidin-1-yl)piperidin-1-yl)ethan-1-one trifluroacetate] was 100 to 250 nM.
`CN1CCc2c(cc(Nc3ncc4cnn([C@H]5CC[C@H](CO)CC5)c4n3)cc2C(F)(F)F)C1` [Example 57, ((1r,4r)-4-(6-((2-methyl-5-(trifluoromethyl)-1,2,3,4-tetrahydroisoquinolin-7-yl)amino)-1H-pyrazolo[3,4-d]pyrimidin-1-yl)cyclohexyl)methanol]: the half-inhibitory concentration (IC50) is under 100 nM.
As for `COc1cc2c(cc1Nc1ncc3cnn(C[C@@H]4C[C@H](C)CN4C(C)=O)c3n1)CN(C)CC2` [Example 136, 1-((2S,4S)-2-((6-((6-methoxy-2-methyl-1,2,3,4-tetrahydroisoquinolin-7-yl)amino)-1H-pyrazolo[3,4-d]pyrimidin-1-yl)methyl)-4-methylpyrrolidin-1-yl)ethan-1-one], the figure is 100 to 250 nM; as for `CC(CO)n1ncc2cnc(Nc3ccc4c(c3)CN(C)CC4)nc21` (stereo not drawn) [Example 10, 2-[6-[(2-methyl-3,4-dihydro-1H-isoquinolin-7-yl)amino]pyrazolo[3,4-d]pyrimidin-1-yl]propan-1-ol trifluoroacetate], under 100 nM; as for `COc1cc2c(cc1Nc1ncc3cnn(C[C@@H]4[C@@H](C)CCN4C(C)=O)c3n1)CN(C)CC2` (single isomer, unassigned) [Example 148], under 100 nM.
As for `COc1cc2c(cc1Nc1ncc3c(C)nn([C@H]4C[C@H](CNS(C)(=O)=O)C4)c3n1)CN(C)CC2` [Example 132, N-(((1r,3r)-3-(6-((6-methoxy-2-methyl-1,2,3,4-tetrahydroisoquinolin-7-yl)amino)-3-methyl-1H-pyrazolo[3,4-d]pyrimidin-1-yl)cyclobutyl)methyl)methanesulfonamide], the figure is under 100 nM; as for `COc1cc2c(cc1Nc1ncc3cnn(C[C@@H]4CC[C@@H](C)N4C(C)=O)c3n1)CN(C)CC2` [Example 174], under 100 nM.
As for `COc1cc2c(cc1Nc1ncc3cnn(C4CC5(CCN(C(C)=O)CC5)C4)c3n1)CN(C)CC2` [Example 81, 1-(2-(6-((6-methoxy-2-methyl-1,2,3,4-tetrahydroisoquinolin-7-yl)amino)-1H-pyrazolo[3,4-d]pyrimidin-1-yl)-7-azaspiro[3.5]nonan-7-yl)ethan-1-one], the figure is under 100 nM.
In the case of `COC(=O)N[C@@H](C)Cn1ncc2cnc(Nc3cc4c(cc3OC)CCN(C)C4)nc21` [Example 95, methyl N-[(1S)-2-[6-[(6-methoxy-2-methyl-3,4-dihydro-1H-isoquinolin-7-yl)amino]pyrazolo[3,4-d]pyrimidin-1-yl]-1-methyl-ethyl]carbamate], the IC50 was under 100 nM.
The value for `COc1cc2c(cc1Nc1ncc3cnn([C@H]4CC[C@H](NS(C)(=O)=O)CC4)c3n1)CN(C)CC2` [Example 79, trans-N-[4-[6-[(6-methoxy-2-methyl-3,4-dihydro-1H-isoquinolin-7-yl)amino]pyrazolo[3,4-d]pyrimidin-1-yl]cyclohexyl]methanesulfonamide] was under 100 nM; that for `COc1cc2c(cc1Nc1ncc3cnn(C[C@H](C)NC(C)=O)c3n1)CN(C)CC2` [Example 93, N-[(1S)-2-[6-[(6-methoxy-2-methyl-3,4-dihydro-1H-isoquinolin-7-yl)amino]pyrazolo[3,4-d]pyrimidin-1-yl]-1-methyl-ethyl]acetamide] was under 100 nM; that for `COc1cc2c(cc1Nc1ncc3cnn(C4CCCCC4)c3n1)CN(C)CC2` [Example 33, N-(1-cyclohexyl-1H-pyrazolo[3,4-d]pyrimidin-6-yl)-6-methoxy-2-methyl-1,2,3,4-tetrahydroisoquinolin-7-amine] was under 100 nM.
As for `COc1cc2c(cc1Nc1ncc3cnn(C[C@H]4C[C@H]4CO)c3n1)CN(C)CC2` (relative stereo) [Example 205, (cis-2-((6-((6-methoxy-2-methyl-1,2,3,4-tetrahydroisoquinolin-7-yl)amino)-1H-pyrazolo[3,4-d]pyrimidin-1-yl)methyl)cyclopropyl)methanol], the figure is under 100 nM.
As for `COc1cc2c(cc1Nc1ncc3c(C)nn(C[C@@H]4CCCN4C(C)=O)c3n1)CN(C)CC2` [Example 115, (S)-1-(2-((6-((6-methoxy-2-methyl-1,2,3,4-tetrahydroisoquinolin-7-yl)amino)-3-methyl-1H-pyrazolo[3,4-d]pyrimidin-1-yl)methyl)231yrrolidine-1-yl)ethan-1-one], the figure is 100 to 250 nM; as for `COc1cc2c(cc1Nc1ncc3cnn([C@H]4CC[C@H](C(=O)O)C4)c3n1)CN(C)CC2` (racemic) [Example 41, rac-(1S,3S)-3-(6-((6-methoxy-2-methyl-1,2,3,4-tetrahydroisoquinolin-7-yl)amino)-1H-pyrazolo[3,4-d]pyrimidin-1-yl)cyclopentane-1-carboxylic acid], 100 to 250 nM.
As for `CN1CCc2ccc(Nc3ncc4cnn([C@H]5CCOC5)c4n3)cc2C1` [Example 19, (S)-2-methyl-N-(1-(tetrahydrofuran-3-yl)-1H-pyrazolo[3,4-d]pyrimidin-6-yl)-1,2,3,4-tetrahydroisoquinolin-7-amine], the IC50 was under 100 nM.
The value for `COc1cc2c(cc1Nc1ncc3cnn(C[C@H]4CN(S(C)(=O)=O)CCO4)c3n1)CN(C)CC2` [Example 128, (S)-6-methoxy-2-methyl-N-(1-((4-(methylsulfonyl)morpholin-2-yl)methyl)-1H-pyrazolo[3,4-d]pyrimidin-6-yl)-1,2,3,4-tetrahydroisoquinolin-7-amine trifluoroacetate] was under 100 nM; that for `COc1cc2c(cc1Nc1ncc3cnn(C[C@H]4CCC[C@@H]4C(=O)O)c3n1)CN(C)CC2` [Example 158, (1S,2S)-2-[[6-[(6-methoxy-2-methyl-3,4-dihydro-1H-isoquinolin-7-yl)amino]pyrazolo[3,4-d]pyrimidin-1-yl]methyl]cyclopentanecarboxylic Acid] was under 100 nM.
